From article PMC6934184, “Selective DNA-PKcs inhibition extends the therapeutic index of localized radiotherapy and chemotherapy” (The Journal of Clinical Investigation, 2019)

Target: T1, PAK3 (Homo sapiens, UniProt O75914)
T1 construct: purchased Thermo Fisher Scientific (Life Technologies) SelectScreen
Assay: SelectScreen Z'LYTE
Assay type: biochemical
How it was run: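 SelectScreen broad panel; activity (Z'LYTE, Adapta) plus binding formats. ATP: Km app for CSF1R Z'LYTE; 10 for CAMK1 Adapta. Readout = % per kinase.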

T1 sequence (O75914 whole entry): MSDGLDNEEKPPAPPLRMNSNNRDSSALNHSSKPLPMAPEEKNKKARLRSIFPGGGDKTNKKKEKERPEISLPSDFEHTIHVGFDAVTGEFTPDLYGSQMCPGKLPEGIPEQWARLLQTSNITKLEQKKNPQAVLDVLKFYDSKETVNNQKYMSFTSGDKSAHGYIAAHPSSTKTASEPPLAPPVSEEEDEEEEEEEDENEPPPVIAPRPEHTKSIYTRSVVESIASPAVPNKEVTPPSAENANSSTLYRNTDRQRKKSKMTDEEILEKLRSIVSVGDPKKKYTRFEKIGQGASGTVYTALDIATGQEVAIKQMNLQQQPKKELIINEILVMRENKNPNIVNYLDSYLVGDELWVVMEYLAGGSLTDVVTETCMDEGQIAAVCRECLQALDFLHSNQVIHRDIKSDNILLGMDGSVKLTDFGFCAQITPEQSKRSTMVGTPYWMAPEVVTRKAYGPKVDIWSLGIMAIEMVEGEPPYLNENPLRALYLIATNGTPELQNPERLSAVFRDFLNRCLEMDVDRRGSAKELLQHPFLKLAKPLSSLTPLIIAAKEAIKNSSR

## CN(C(=O)CN1CCOCC1)c1ccc2sc3c(-c4cccc5c(=O)cc(N6CC7CCC(C6)O7)oc45)cccc3c2c1 [NU5455]
  inhibition at 1 µM: -42.6%
